Experimental data: US10221167B2, “Hydroxyalkylamine- and hydroxycycloalkylamine-substituted diamine-arylsulfonamide compounds with selective activity in voltage-gated sodium channels” (Merck Sharp & Dohme Corp., priority 2015, dated 2019)

Tests used:
[1] = molecular target: T1, human Nav1.7 channels stably expressed in HEK 293 cells (Homo sapiens, UniProt Q15858); assay: IonWorks Quattro automated patch-clamp, state-dependent inhibition of Nav1.7; format: cell-based; settings: inactivated state block, double-pulse protocol, holding -100 mV, read-out: potency for the Nav 1.7 sodium ion channel (as measured by IonWorks)
T1 construct: expressed in transfected cells
Experimental: (§1) Compounds were tested on human Nav1.7 and Nav1.5 channels stably expressed in HEK 293 cells. […] Cells were sealed on a planar substrate using the Population Patch Plate (PPC) technology. Electrical access was obtained using both nystatin and amphotericin. A double-pulse protocol was used for the determination of IC50 values for inactivated state block. Nav1.7 and Nav1.5 expressing cells were voltage clamped at −100 mV and −110 mV, respectively. A depolarizing prepulse to −10 mV (Nav1.7) or −30 mV (Nav1.5) for 1000 ms followed by a 10 ms repolarization to −100 mV (Nav1.7) or −110 mV (Nav1.5) was given to generate fractional channel inactivation of ˜50%, followed by a 10 ms test pulse to −10 mV (Nav1.7) or −30 mV (Nav1.5) to measure peak current in control conditions and after compound addition. The following recording solutions were used (mM). External: 150 NaCl, 2 CaCl2, 5 KCl, 1 Mg Cl2, 10 HEPES, 12 Dextrose; internal: 120 CsF, 30 CsCl, 10 EGTA, 5 HEPES, 5 NaF, 2 MgCl2.
(§2) For all electrophysiology experiments, offline analysis was used to determine percent inhibition as a function of drug concentration. IC50 values were determined by fitting to the Hill equation.
(§3) The various compounds in Examples 1 through 4 and Tables 1 through 3 exemplified above were assayed for activity and selectivity using the foregoing IonWorks® technique. The results are reported in the following paragraph in a format expressing the identification of the compound with reference Example and compound (e.g. Ex 1-1 is Example 1, compound 1) followed by the observed potency in nM and the ratio of Nav1.7 potency:Nav 1.5 potency as described here. […]

[2] = molecular target: T2, human Nav1.5 channels stably expressed in HEK 293 cells (Homo sapiens, UniProt Q14524); assay: IonWorks Quattro automated patch-clamp, Nav1.5 (selectivity ratio versus Nav1.7); format: cell-based; settings: selectivity for Nav1.7 over Nav1.5, inactivated state block
T2 construct: expressed in transfected cells
Experimental: as §1, §2, §3

T2 sequence (Q14524 whole entry): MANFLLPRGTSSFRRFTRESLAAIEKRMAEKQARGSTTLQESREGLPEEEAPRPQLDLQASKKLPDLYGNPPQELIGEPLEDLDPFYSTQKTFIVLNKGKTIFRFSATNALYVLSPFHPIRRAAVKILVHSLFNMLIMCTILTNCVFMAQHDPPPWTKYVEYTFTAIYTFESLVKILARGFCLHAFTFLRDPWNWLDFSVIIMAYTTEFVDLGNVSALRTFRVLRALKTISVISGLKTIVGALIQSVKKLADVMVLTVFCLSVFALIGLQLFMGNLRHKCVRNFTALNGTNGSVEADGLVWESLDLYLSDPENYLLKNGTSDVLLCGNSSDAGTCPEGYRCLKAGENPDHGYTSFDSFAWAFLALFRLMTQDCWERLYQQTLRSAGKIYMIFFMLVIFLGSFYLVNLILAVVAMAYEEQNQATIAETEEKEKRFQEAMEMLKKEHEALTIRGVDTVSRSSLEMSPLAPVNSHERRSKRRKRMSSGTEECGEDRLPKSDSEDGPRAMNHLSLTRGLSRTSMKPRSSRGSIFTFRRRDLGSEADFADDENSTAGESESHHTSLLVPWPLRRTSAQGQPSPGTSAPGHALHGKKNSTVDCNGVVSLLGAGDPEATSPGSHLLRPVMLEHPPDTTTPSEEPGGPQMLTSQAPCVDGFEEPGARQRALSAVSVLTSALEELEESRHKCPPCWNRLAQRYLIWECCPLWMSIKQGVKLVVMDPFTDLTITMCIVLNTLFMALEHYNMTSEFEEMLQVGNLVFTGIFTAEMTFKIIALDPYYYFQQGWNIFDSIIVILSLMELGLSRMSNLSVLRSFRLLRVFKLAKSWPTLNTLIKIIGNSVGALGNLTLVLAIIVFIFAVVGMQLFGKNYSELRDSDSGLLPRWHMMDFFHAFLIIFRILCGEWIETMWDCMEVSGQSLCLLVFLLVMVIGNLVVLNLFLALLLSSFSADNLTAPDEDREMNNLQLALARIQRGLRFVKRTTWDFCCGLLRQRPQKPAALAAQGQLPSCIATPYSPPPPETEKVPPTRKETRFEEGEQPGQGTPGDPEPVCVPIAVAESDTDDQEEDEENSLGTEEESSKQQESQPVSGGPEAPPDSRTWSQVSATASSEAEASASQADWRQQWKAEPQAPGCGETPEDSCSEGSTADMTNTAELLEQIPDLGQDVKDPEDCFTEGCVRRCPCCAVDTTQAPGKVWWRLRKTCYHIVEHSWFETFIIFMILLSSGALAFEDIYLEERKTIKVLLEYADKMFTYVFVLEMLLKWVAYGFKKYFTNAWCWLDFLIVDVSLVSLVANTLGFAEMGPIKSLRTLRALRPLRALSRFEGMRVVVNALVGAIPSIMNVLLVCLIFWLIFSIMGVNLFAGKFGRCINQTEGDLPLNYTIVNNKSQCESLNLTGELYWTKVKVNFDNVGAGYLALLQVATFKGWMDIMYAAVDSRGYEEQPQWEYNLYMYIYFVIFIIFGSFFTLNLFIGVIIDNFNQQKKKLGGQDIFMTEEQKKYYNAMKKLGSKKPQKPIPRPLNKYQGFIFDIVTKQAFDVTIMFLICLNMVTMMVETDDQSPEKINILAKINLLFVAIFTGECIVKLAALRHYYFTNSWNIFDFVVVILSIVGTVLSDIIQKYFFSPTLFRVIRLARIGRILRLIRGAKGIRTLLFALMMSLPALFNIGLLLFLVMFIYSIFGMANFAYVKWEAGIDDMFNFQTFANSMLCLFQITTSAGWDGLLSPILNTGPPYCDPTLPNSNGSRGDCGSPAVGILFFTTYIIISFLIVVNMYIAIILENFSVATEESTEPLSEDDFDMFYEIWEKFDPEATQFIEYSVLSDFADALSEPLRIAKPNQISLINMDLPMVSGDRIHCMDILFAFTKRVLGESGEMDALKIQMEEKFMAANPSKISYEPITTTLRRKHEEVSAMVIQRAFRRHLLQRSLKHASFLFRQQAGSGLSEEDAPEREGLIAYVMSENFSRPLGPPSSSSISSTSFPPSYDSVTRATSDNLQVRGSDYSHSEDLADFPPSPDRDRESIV
T1 sequence (Q15858 whole entry): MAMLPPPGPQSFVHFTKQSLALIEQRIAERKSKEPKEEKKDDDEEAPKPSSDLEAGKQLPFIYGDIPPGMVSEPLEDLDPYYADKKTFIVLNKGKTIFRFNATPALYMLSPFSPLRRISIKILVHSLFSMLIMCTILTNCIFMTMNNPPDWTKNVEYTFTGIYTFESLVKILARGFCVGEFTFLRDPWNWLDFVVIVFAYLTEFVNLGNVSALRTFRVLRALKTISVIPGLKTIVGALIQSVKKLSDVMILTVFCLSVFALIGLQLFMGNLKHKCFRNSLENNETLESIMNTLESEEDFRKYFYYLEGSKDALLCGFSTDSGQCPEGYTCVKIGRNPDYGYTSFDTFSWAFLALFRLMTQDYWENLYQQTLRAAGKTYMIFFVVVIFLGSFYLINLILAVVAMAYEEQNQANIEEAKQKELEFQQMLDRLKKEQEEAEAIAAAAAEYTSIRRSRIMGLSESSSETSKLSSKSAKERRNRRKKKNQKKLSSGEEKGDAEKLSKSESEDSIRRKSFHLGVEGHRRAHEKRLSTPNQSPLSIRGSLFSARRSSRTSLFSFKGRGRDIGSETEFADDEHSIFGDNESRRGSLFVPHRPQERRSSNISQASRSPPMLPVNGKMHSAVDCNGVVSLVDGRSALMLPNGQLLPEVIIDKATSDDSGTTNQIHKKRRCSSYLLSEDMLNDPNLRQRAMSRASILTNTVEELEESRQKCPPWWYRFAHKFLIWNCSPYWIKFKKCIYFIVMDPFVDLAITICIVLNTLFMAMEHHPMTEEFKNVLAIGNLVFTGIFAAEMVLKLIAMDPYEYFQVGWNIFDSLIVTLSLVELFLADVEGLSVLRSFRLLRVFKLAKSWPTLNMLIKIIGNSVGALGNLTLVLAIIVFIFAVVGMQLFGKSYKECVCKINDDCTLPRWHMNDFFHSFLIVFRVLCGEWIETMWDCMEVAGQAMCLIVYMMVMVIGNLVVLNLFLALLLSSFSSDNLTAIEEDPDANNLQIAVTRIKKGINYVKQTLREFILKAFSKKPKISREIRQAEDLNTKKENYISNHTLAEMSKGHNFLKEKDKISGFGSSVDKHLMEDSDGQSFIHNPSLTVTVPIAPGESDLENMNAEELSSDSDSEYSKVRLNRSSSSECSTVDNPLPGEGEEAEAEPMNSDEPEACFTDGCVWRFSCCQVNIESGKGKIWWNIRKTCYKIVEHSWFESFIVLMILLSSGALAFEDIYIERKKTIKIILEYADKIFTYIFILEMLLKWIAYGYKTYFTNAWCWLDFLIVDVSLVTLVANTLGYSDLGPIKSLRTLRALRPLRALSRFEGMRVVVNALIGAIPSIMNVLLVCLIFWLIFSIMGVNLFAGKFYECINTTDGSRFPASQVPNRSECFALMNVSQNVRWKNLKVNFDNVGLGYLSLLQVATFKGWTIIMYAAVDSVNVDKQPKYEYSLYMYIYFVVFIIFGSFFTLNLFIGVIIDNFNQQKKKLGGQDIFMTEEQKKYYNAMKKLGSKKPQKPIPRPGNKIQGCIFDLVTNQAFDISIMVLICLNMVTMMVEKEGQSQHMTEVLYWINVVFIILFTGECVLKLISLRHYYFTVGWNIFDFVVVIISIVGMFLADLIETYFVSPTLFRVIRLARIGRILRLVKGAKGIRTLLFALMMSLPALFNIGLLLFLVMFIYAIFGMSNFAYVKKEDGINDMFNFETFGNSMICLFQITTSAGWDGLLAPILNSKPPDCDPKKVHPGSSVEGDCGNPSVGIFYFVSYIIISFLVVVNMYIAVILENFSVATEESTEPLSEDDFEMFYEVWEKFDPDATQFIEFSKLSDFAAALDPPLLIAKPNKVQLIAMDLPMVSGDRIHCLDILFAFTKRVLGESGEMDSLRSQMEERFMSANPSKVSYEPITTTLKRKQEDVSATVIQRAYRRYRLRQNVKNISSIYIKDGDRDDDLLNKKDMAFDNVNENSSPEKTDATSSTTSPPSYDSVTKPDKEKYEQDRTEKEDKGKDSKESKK

SMILES | IC50 [1] [nM] | ratio of Nav1.7 potency:Nav 1.5 potency [2]
O=S(=O)(Nc1ncc(F)s1)c1cc(Cl)c(NCCCCN[C@H]2CNC[C@@H]2O)cc1F [EX 2-16, 5-chloro-2-fluoro-N-(5-fluoro-1,3-thiazol-2-yl)-4-[(4-{[(3S,4S)-4-hydroxypyrrolidin-3-yl]amino}butyl)amino] benzenesulfonamide] | 32 | ≥ 1031
O=S(=O)(Nc1ncc(F)s1)c1cc(Cl)c(NCCCCNCCNCCO)cc1F [EX 2-9, 5-chloro-2-fluoro-N-(5-fluoro-1,3-thiazol-2-yl)-4-{[4-({2-[(2-hydroxyethyl)amino]ethyl}amino)butyl]amino} benzenesulfonamide] | 29 | ≥ 1138
NC[C@H](O)CNCCCCNc1cc(F)c(S(=O)(=O)Nc2ncns2)cc1Cl [EX 1-1, 4-[(4-{[(2S)-3-amino-2-hydroxypropyl]amino}butyl)amino]-5-chloro-2-fluoro-N-1,2,4-thiadiazol-5-ylbenzenesulfonamide] | 50 | ≥ 660
O=S(=O)(Nc1ncc(F)s1)c1cc(Cl)c(NCCCCNC[C@@H]2C[C@H](O)CN2)cc1F [EX 2-21, 5-chloro-2-fluoro-N-(5-fluoro-1,3-thiazol-2-yl)-4-{[4-({[(2S,4S)-4-hydroxypyrrolidin-2-yl]methyl}amino)butyl]amino} benzenesulfonamide] | 32 | ≥ 344
O=S(=O)(Nc1ncns1)c1cc(Cl)c(NCCCCN[C@@H]2CNC[C@H]2O)cc1F [EX 2-2, 5-chloro-2-fluoro-4-[(4-{[(3R,4R)-4-hydroxypyrrolidin-3-yl]amino}butyl)amino]-N-1,2,4-thiadiazol-5-ylbenzenesulfonamide] | 23 | 
NC[C@H](CO)NCCCCNc1cc(F)c(S(=O)(=O)Nc2nccs2)cc1Cl [EX 2-39, 4-[(4-{[(1R)-2-amino-1-(hydroxymethyl)ethyl)amino}butyl)amino]-5-chloro-2-fluoro-N-1,3-thiazol-2-ylbenzenesulfonamide] | 60 | ≥ 550
O=S(=O)(Nc1ncc(F)s1)c1cc(Cl)c(NCCCCNC[C@@H]2C[C@@H](O)CN2)cc1F [EX 2-22, 5-chloro-2-fluoro-N-(5-fluoro-1,3-thiazol-2-yl)-4-{[4-({[(2S,4R)-4-hydroxypyrrolidin-2-yl]methyl}amino)butyl]amino} benzenesulfonamide] | 35 | ≥ 942
NC[C@H](CO)NCCCCNc1cc(F)c(S(=O)(=O)Nc2ncc(F)s2)cc1Cl [EX 2-40, 4-[(4-{[(1R)-2-amino-1-(hydroxymethyl)ethyl]amino}butyl)amino]-5-chloro-2-fluoro-N-(5-fluoro-1,3-thiazol-2-yl)benzenesulfonamide] | 50 | 
O=S(=O)(Nc1nccs1)c1cc(Cl)c(NCCCCN[C@H]2CNC[C@@H]2O)cc1F [EX 2-38] | 40 | 
O=S(=O)(Nc1nccs1)c1cc(Cl)c(NCCCCN[C@@H]2CNC[C@H]2O)cc1F [EX 2-31, 5-chloro-2-fluoro-4-[(4-{[(3R,4R)-4-hydroxypyrrolidin-3-yl]amino}butyl)amino]-N-1,3-thiazol-2-ylbenzenesulfonamide] | 30 | 
O=S(=O)(Nc1ncc(F)s1)c1cc(Cl)c(NCCCCNC[C@H]2C[C@H](O)CN2)cc1F [EX 2-24, 5-chloro-2-fluoro-N-(5-fluoro-1,3-thiazol-2-yl)-4-{[4-({[(2R,4S)-4-hydroxypyrrolidin-2-yl]methyl}amino)butyl]amino} benzenesulfonamide] | 30 | 
O=S(=O)(Nc1ncc(F)s1)c1cc(Cl)c(NCCCCN[C@@H]2CNC[C@H]2O)cc1F [EX 2-20, 5-chloro-2-fluoro-N-(5-fluoro-1,3-thiazol-2-yl)-4-[(4-{[(3R,4R)-4-hydroxypyrrolidin-3-yl]amino}butyl)amino] benzenesulfonamide] | 40 | 

More lines, in order of falling IC50 [1], values ahead:

IC50 [1] [nM] | SMILES | ratio of Nav1.7 potency:Nav 1.5 potency [2]
23 | O=S(=O)(Nc1ncc(F)s1)c1cc(Cl)c(NCCCCNC[C@H]2C[C@@H](O)CN2)cc1F [EX 2-23, 5-chloro-2-fluoro-N-(5-fluoro-1,3-thiazol-2-yl)-4-{[4-({[(2R,4R)-4-hydroxypyrrolidin-2-yl]methyl}amino)butyl]amino} benzenesulfonamide] | 
20 | NCC[C@@H](CO)NCCCCNc1cc(F)c(S(=O)(=O)Nc2ncc(F)s2)cc1Cl [EX 2-33, 4-[(4-{[(1S)-3-amino-1-(hydroxymethyl)propyl]amino}butyl)amino]-5-chloro-2-fluoro-N-(5-fluoro-1,3-thiazol-2-yl)benzenesulfonamide] | 
20 | NCC1(O)CN(CCCCNc2cc(F)c(S(=O)(=O)Nc3ncc(F)s3)cc2Cl)C1 [EX 1-2, 4-({4-[3-(aminomethyl)-3-hydroxyazetidin-1-yl]butyl}amino)-5-chloro-2-fluoro-N-(5-fluoro-1,3-thiazol-2-yl)benzenesulfonamide] | 
19 | O=S(=O)(Nc1ncns1)c1cc(Br)c(NCCCCNCC2(O)CNC2)cc1F [EX 1-5, 5-bromo-2-fluoro-4-[(4-{[(3-hydroxyazetidin-3-yl)methyl]amino}butyl)amino]-N-1,2,4-thiadiazol-5-ylbenzenesulfonamide] | 
19 | NCC[C@@H](CO)NCCCCNc1cc(F)c(S(=O)(=O)Nc2nccs2)cc1Cl [EX 2-32, 4-[(4-{[(1S)-3-amino-1-(hydroxymethyl)propyl]amino}butyl)amino]-5-chloro-2-fluoro-N-1,3-thiazol-2-ylbenzenesulfonamide] | 
18 | NCC[C@@H](CO)NCCCCNc1cc(F)c(S(=O)(=O)Nc2ncns2)cc1Cl [EX 2-34, 4-[(4-{[(1S)-3-amino-1-(hydroxymethyl)propyl]amino}butyl)amino]-5-chloro-2-fluoro-N-1,2,4-thiadiazol-5-ylbenzenesulfonamide] | 
18 | O=S(=O)(Nc1nccs1)c1cc(Cl)c(NCCCCNCC2(O)CNC2)cc1F [EX 2-28, 5-chloro-2-fluoro-4-[(4-{[(3-hydroxyazetidin-3-yl)methyl]amino}butyl)amino]-N-1,3-thiazol-2-ylbenzenesulfonamide] | 
18 | NCC(O)CNCCCCNc1cc(F)c(S(=O)(=O)Nc2nccs2)cc1Cl (single isomer, unassigned) [EX 2-29, 4-[(4-{[(2R or 2S)-3-amino-2-hydroxypropyl]amino}butyl)amino]-5-chloro-2-fluoro-N-1,3-thiazol-2-ylbenzenesulfonamide] | 
17 | NC[C@@H](O)CNCCCCNc1cc(F)c(S(=O)(=O)Nc2ncns2)cc1Br [EX 1-8, 4-[(4-{[(2R)-3-amino-2-hydroxypropyl]-amino}-butyl)amino]-5-bromo-2-fluoro-N-1,2,4-thiadiazol-5-yl-benzenesulfonamide] | 
17 | NCC(O)CNCCCCNc1cc(F)c(S(=O)(=O)Nc2nccs2)cc1Cl (single isomer, unassigned) [EX 2-30, 4-[(4-{[(2S or 2R)-3-amino-2-hydroxypropyl]amino}butyl)amino]-5-chloro-2-fluoro-N-1,3-thiazol-2-ylbenzenesulfonamide] | 
16 | NCC(O)CNCCCCNc1cc(F)c(S(=O)(=O)Nc2ncc(F)s2)cc1Cl (single isomer, unassigned) [EX 2-18, 4-[(4-{[(2S or 2R)-3-amino-2-hydroxypropyl]amino}butyl)amino]-5-chloro-2-fluoro-N-(5-fluoro-1,3-thiazol-2-yl)benzenesulfonamide] | ≥ 1000
15 | NC[C@@H](O)CNCCCCNc1cc(F)c(S(=O)(=O)Nc2ncns2)cc1Cl [EX 1-6, 4-[(4-{[(2R)-3-amino-2-hydroxypropyl]-amino}butyl)amino]-5-chloro-2-fluoro-N-1,2,4-thiadiazol-5-yl-benzenesulfonamide] | 
15 | O=S(=O)(Nc1ncc(F)s1)c1cc(Br)c(NCCCCNCC2(O)CNC2)cc1F [EX 2-25, 5-bromo-2-fluoro-N-(5-fluoro-1,3-thiazol-2-yl)-4-[(4-{[(3-hydroxyazetidin-3-yl)methyl]amino}butyl)amino] benzenesulfonamide] | 
15 | NC[C@@H](CO)NCCCCNc1cc(F)c(S(=O)(=O)Nc2nccs2)cc1Cl [EX 2-35, 4-[(4-{[(1S)-2-amino-1-(hydroxymethyl)ethyl]amino}butyl)amino]-5-chloro-2-fluoro-N-1,3-thiazol-2-ylbenzenesulfonamide] | 
15 | O=S(=O)(Nc1ncns1)c1cc(Br)c(NCCCCN[C@H]2CNC[C@@H]2O)cc1F [EX 2-43, 5-bromo-2-fluoro-4-((4-(((3S,4S)-4-hydroxypyrrolidin-3-yl)amino)butyl)amino)-N-(1,2,4-thiadiazol-5-yl)benzenesulfonamide] | 
15 | NCC(O)CNCCCCNc1cc(F)c(S(=O)(=O)Nc2ncc(F)s2)cc1Cl (single isomer, unassigned) [EX 2-17, 4-[(4-{[(2R or 2S)-3-amino-2-hydroxypropyl]amino}butyl)amino]-5-chloro-2-fluoro-N-(5-fluoro-1,3-thiazol-2-yl)benzenesulfonamide] | 
